In patent publication EP4722207A1, “OXOISOINDOLINYL-SUBSTITUTED TETRAHYDROPYRIMIDINEDIONE DERIVATIVE AND USE THEREOF” (Gluetacs Therapeutics (Shanghai) Co., Ltd., priority 2023, dated 2024):

Assays:
MV-4-11 = assay: Cell viability assay (CellTiter-Meiluncell Luminescent), tumor cell proliferation, MV-4-11; details: Homo sapiens, MV4-11, 96 h; for inhibition at 0.01 µM: read-out: Inhibition Rate at 10 nM (%); for inhibition at 0.5 µM: read-out: Inhibition Rate at 500 nM (%)
WEE1 = target: T1, WEE1 (Homo sapiens, UniProt P30291+Q96SW2); assay: Western-blot assay, substrate protein degradation in hPBMCs: WEE1; format: cell-based; details: 24 hours of compound treatment, 50 nM and 500 nM
T1 construct: effects of the compounds of the present disclosure on the expression of target proteins in cells; endogenous in cells; host or cells: human PBMCs (hPBMCs)

CK1α = target: T2, CK1α (Homo sapiens, UniProt P48729+Q96SW2); assay: Western-blot assay, substrate protein degradation in hPBMCs: CK1α; format: cell-based; details: 24 hours of compound treatment, 50 nM and 500 nM
T2 construct: effects of the compounds of the present disclosure on the expression of target proteins in cells; endogenous in cells; host or cells: human PBMCs (hPBMCs)

MDA-MB-231 = assay: Cell viability assay (CellTiter-Meiluncell Luminescent), tumor cell proliferation, MDA-MB-231; details: Homo sapiens, MDA-MB-231, 96 h; for inhibition at 0.01 µM: read-out: Inhibition Rate at 10 nM (%); for inhibition at 0.5 µM: read-out: Inhibition Rate at 500 nM (%)
GSPT1 = target: T3, GSPT1 (Homo sapiens, UniProt P15170+Q96SW2); assay: Western-blot assay, substrate protein degradation in hPBMCs: GSPT1; format: cell-based; details: 24 hours of compound treatment, 50 nM and 500 nM
T3 construct: effects of the compounds of the present disclosure on the expression of target proteins in cells; endogenous in cells; host or cells: human PBMCs (hPBMCs)

H292 = assay: Cell viability assay (CellTiter-Meiluncell Luminescent), tumor cell proliferation, H292; details: Homo sapiens, NCI-H292, 96 h; for inhibition at 0.01 µM: read-out: Inhibition Rate at 10 nM (%); for inhibition at 0.5 µM: read-out: Inhibition Rate at 500 nM (%)
IKZF2 = target: T4, IKZF2 (Homo sapiens, UniProt Q96SW2+Q9UKS7); assay: Western-blot assay, substrate protein degradation in hPBMCs: IKZF2; format: cell-based; details: 24 hours of compound treatment, 50 nM and 500 nM
T4 construct: effects of the compounds of the present disclosure on the expression of target proteins in cells; endogenous in cells; host or cells: human PBMCs (hPBMCs)

IKZF3 = target: T5, IKZF3 (Homo sapiens, UniProt Q96SW2+Q9UKT9); assay: Western-blot assay, substrate protein degradation in hPBMCs: IKZF3; format: cell-based; details: 24 hours of compound treatment, 50 nM and 500 nM
T5 construct: effects of the compounds of the present disclosure on the expression of target proteins in cells; endogenous in cells; host or cells: human PBMCs (hPBMCs)

IKZF1 = target: T6, IKZF1 (Homo sapiens, UniProt Q13422+Q96SW2); assay: Western-blot assay, substrate protein degradation in hPBMCs: IKZF1; format: cell-based; details: 24 hours of compound treatment, 50 nM and 500 nM
T6 construct: effects of the compounds of the present disclosure on the expression of target proteins in cells; endogenous in cells; host or cells: human PBMCs (hPBMCs)
T6 sequence (Q13422 whole entry): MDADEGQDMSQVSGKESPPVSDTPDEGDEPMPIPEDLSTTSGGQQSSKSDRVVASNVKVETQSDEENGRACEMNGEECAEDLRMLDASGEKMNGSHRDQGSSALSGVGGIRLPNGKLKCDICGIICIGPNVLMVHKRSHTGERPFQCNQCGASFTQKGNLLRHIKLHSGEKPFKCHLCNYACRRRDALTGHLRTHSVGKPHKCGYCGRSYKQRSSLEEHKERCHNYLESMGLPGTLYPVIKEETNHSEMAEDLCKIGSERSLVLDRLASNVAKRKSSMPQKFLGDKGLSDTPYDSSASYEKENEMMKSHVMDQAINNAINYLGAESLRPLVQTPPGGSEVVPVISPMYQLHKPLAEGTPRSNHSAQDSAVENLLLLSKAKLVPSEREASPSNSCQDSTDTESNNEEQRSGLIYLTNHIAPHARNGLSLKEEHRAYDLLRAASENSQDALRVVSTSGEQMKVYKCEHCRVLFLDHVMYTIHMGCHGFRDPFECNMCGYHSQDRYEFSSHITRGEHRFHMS
T6 sequence (Q96SW2 whole entry): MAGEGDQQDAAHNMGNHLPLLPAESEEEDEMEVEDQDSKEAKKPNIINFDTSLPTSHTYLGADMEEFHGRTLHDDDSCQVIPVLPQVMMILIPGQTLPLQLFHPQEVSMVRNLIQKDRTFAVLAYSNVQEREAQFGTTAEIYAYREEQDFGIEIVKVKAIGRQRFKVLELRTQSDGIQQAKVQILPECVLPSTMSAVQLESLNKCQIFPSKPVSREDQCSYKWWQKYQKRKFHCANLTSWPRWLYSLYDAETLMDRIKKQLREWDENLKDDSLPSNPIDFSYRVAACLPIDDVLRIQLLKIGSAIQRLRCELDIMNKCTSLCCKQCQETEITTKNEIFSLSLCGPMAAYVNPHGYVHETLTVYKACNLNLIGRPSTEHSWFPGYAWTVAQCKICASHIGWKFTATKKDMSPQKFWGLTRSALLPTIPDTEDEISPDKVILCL
T6 sequence (Q16531 whole entry partner): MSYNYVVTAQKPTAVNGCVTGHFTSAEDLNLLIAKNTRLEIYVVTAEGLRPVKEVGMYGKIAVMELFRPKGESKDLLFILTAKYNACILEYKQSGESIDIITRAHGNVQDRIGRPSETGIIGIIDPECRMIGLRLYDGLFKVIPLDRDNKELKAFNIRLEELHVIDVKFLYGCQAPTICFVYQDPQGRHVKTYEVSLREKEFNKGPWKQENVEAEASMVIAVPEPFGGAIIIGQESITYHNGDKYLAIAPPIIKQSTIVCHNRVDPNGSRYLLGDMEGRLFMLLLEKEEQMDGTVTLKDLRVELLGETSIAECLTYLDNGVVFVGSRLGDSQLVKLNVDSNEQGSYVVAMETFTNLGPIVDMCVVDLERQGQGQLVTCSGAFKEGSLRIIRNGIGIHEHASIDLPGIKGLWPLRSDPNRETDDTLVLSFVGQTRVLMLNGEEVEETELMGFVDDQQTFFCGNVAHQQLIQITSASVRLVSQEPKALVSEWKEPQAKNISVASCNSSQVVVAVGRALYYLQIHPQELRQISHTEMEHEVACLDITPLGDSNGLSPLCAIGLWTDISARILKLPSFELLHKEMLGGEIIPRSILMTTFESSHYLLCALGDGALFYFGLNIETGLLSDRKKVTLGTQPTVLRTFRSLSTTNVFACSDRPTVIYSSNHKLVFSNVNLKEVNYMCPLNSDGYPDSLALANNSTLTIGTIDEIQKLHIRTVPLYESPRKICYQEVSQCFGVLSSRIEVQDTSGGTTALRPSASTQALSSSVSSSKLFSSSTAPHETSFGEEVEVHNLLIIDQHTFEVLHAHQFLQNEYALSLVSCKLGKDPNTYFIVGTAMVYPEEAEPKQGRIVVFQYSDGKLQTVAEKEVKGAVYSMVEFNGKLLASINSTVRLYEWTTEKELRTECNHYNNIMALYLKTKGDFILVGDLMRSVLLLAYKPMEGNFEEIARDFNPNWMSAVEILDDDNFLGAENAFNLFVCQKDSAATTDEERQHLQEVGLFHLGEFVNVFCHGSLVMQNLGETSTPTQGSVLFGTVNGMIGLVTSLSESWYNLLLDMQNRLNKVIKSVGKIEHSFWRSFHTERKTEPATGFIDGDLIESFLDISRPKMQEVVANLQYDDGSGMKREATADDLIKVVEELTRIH

T1 sequence (P30291 whole entry): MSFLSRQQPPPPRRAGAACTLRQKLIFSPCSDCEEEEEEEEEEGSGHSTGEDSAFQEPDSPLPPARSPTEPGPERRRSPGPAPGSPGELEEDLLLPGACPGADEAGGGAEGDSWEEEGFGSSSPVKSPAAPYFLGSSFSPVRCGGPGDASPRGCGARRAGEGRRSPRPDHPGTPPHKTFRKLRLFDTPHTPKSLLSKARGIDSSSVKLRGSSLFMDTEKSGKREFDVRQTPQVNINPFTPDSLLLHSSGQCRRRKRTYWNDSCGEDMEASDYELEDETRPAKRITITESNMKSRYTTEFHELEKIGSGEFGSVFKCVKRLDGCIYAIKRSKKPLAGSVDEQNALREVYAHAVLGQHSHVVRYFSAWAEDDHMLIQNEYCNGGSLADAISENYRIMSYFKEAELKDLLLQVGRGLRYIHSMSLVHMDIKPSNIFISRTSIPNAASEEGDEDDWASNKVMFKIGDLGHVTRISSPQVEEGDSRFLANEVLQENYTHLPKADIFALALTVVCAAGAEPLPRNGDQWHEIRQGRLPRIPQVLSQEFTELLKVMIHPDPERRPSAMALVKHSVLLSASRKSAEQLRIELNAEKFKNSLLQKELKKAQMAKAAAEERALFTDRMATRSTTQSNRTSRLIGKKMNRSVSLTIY
T1 sequence (Q96SW2 whole entry): as the sequence (Q96SW2 whole entry) above
T1 sequence (Q16531 whole entry partner): as the sequence (Q16531 whole entry partner) above
T3 sequence (P15170 whole entry): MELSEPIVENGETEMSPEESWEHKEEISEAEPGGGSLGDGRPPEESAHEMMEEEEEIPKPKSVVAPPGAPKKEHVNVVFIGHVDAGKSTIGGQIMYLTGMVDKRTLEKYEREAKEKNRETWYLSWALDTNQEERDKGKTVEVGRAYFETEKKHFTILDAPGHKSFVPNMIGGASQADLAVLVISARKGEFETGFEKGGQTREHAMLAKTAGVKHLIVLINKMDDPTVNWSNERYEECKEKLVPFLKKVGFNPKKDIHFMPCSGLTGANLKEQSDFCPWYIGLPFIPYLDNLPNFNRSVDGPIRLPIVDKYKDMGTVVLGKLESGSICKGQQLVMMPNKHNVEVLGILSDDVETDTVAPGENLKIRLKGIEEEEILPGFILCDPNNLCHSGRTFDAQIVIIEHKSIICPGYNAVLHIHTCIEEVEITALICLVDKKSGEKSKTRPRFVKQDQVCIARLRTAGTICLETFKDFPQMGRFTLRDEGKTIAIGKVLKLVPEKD
T3 sequence (Q96SW2 whole entry): as the sequence (Q96SW2 whole entry) above
T3 sequence (Q16531 whole entry partner): as the sequence (Q16531 whole entry partner) above
T5 sequence (Q9UKT9 whole entry): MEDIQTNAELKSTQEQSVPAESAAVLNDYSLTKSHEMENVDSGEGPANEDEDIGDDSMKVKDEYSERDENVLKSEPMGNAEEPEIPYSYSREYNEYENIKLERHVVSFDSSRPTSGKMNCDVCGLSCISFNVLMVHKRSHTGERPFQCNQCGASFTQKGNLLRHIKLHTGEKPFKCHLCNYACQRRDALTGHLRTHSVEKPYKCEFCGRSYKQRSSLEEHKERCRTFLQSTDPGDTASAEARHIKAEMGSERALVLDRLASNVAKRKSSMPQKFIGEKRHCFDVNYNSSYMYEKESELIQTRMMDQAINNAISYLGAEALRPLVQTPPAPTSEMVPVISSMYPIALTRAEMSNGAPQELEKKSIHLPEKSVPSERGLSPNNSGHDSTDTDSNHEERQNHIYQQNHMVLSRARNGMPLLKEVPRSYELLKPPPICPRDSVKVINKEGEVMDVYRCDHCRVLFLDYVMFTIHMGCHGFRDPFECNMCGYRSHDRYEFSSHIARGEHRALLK
T5 sequence (Q96SW2 whole entry): as the sequence (Q96SW2 whole entry) above
T5 sequence (Q16531 whole entry partner): as the sequence (Q16531 whole entry partner) above
T4 sequence (Q9UKS7 whole entry): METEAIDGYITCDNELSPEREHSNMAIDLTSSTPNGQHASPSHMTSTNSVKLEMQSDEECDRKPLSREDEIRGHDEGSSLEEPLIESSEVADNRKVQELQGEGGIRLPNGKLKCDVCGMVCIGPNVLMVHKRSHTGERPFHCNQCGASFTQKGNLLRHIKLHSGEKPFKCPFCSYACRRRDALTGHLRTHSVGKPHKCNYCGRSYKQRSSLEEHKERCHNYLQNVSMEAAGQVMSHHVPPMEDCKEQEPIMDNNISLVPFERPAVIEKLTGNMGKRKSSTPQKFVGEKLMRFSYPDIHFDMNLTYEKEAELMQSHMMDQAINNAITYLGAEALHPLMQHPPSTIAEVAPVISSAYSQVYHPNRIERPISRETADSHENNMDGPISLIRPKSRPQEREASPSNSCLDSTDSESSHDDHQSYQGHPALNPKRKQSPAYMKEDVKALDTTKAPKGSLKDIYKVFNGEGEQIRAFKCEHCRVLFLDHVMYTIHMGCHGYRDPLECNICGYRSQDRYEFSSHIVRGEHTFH
T4 sequence (Q96SW2 whole entry): as the sequence (Q96SW2 whole entry) above
T4 sequence (Q16531 whole entry partner): as the sequence (Q16531 whole entry partner) above

| Compound | inhibition at 0.01 µM (MV-4-11) [%] | inhibition at 0.5 µM (MV-4-11) [%] | substrate protein remaining % WEE1 (WEE1) | substrate protein remaining % CK1α (CK1α) | inhibition at 0.01 µM (MDA-MB-231) [%] | inhibition at 0.5 µM (MDA-MB-231) [%] | substrate protein remaining % GSPT1 (GSPT1) | inhibition at 0.01 µM (H292) [%] | inhibition at 0.5 µM (H292) [%] | substrate protein remaining % IKZF2 (IKZF2) | substrate protein remaining % IKZF3 (IKZF3) | substrate protein remaining % IKZF1 (IKZF1) |
| --- | --- | --- | --- | --- | --- | --- | --- | --- | --- | --- | --- | --- |
| O=C1CCN(N2Cc3cc(CN4CCN(c5ncnc6sc(Br)cc56)CC4)ccc3C2=O)C(=O)N1 [GT-08063, 1-(5-((4-(6-bromothieno[2,3-d]pyrimidin-4-yl)piperazin-1-yl)methyl)-1-oxoisoindolin-2-yl)dihydropyrimidine-2,4(1H,3H)-dione] | 18 to 25 | 5 to 10 | B (80%< substrate protein remaining %≤ 100%) | B (80%< substrate protein remaining %≤ 100%) | 15 to 18 | 15 to 18 | B (80%< substrate protein remaining %≤ 100%) | 20 to 40 | 20 to 40 | A (0% ≤ substrate protein remaining % ≤ 80%) | A (0% ≤ substrate protein remaining % ≤ 80%) | B (80%< substrate protein remaining %≤ 100%) |
| O=C1CCN(N2Cc3cc(CN4CCN(c5ncc6ccsc6n5)CC4)ccc3C2=O)C(=O)N1 [GT-08081, 1-(1-oxo-5-((4-(thieno[2,3-d]pyrimidin-2-yl)piperazin-1-yl)methyl)isoindolin-2-yl)dihydropyrimidine-2,4(1H,3H)-dione] | 18 to 25 | 25 to 30 | A (0% ≤ substrate protein remaining % ≤ 80%) | A (0% ≤ substrate protein remaining % ≤ 80%) | 18 to 25 | 5 to 10 | A (0% ≤ substrate protein remaining % ≤ 80%) | – | – | B (80%< substrate protein remaining %≤ 100%) | B (80%< substrate protein remaining %≤ 100%) | B (80%< substrate protein remaining %≤ 100%) |
| Cc1nc(C2CCN(Cc3ccc4c(c3)C(=O)N(N3CCC(=O)NC3=O)C4=O)CC2)c2c(-c3ccccc3)csc2n1 [GT-08110, 2-(2,4-dioxotetrahydropyrimidin-1(2H)-yl)-5-((4-(2-methyl-5-phenylthieno[2,3-d]pyrimidin-4-yl)piperidin-1-yl)methyl)isoindoline-1,3-dione] | 10 to 18 | 18 to 25 | A (0% ≤ substrate protein remaining % ≤ 80%) | A (0% ≤ substrate protein remaining % ≤ 80%) | 25 to 40 | 15 to 18 | A (0% ≤ substrate protein remaining % ≤ 80%) | 20 to 40 | 10 to 15 | A (0% ≤ substrate protein remaining % ≤ 80%) | A (0% ≤ substrate protein remaining % ≤ 80%) | A (0% ≤ substrate protein remaining % ≤ 80%) |
| Cc1nc(C2CCN(Cc3ccc4c(c3)CN(N3CCC(=O)NC3=O)C4=O)CC2)c2c3c(sc2n1)CCC3 [GT-08114, 1-(5-((4-(2-methyl-6,7-dihydro-5H-cyclopenta[4,5]thieno[2,3-d]pyrimidin-4-yl)piperidin-1-yl)methyl)-1-oxoisoindolin-2-yl)dihydropyrimidine-2,4(1H,3H)-dione] | – | – | B (80%< substrate protein remaining %≤ 100%) | B (80%< substrate protein remaining %≤ 100%) | 18 to 25 | 18 to 25 | A (0% ≤ substrate protein remaining % ≤ 80%) | 20 to 40 | 10 to 15 | B (80%< substrate protein remaining %≤ 100%) | B (80%< substrate protein remaining %≤ 100%) | B (80%< substrate protein remaining %≤ 100%) |
| Cc1csc2ncnc(C3=CCN(Cc4ccc5c(c4)CN(N4CCC(=O)NC4=O)C5=O)CC3)c12 [GT-08117, 1-(5-((4-(5-methylthieno[2,3-d]pyrimidin-4-yl)-3,6-dihydropyridin-1(2H)-yl)methyl)-1-oxoisoindolin-2-yl)dihydropyrimidine-2,4(1H,3H)-dione] | – | – | B (80%< substrate protein remaining %≤ 100%) | A (0% ≤ substrate protein remaining % ≤ 80%) | 18 to 25 | 18 to 25 | A (0% ≤ substrate protein remaining % ≤ 80%) | 20 to 40 | 20 to 40 | B (80%< substrate protein remaining %≤ 100%) | A (0% ≤ substrate protein remaining % ≤ 80%) | B (80%< substrate protein remaining %≤ 100%) |
| NCc1ccc2c(c1)CN(N1CCC(=O)NC1=O)C2=O [GT-08118, 1-(5-(aminomethyl)-1-oxoisoindolin-2-yl)dihydropyrimidine-2,4(1H,3H)-dione] | 40 to 60 | 40 to 60 | – | – | 18 to 25 | 25 to 40 | – | 20 to 40 | 20 to 40 | – | – | – |
